Laboratory results: patent publication US8128962B2, “Liquid compositions containing solubilized benzoyl peroxide, means for applying same and methods of treatment using same” (priority 2007, dated 2012)

Experiments:
Propionibacterium acnes = details: versus clindamycin or erythromycin; Leyden 2001; cited from earlier work
[1] = water and most dermatologically safe solvents; cited from earlier work
[2] = Solubility of BP in solvents; type: physicochemical

O=C(OOC(=O)c1ccccc1)c1ccccc1 [BP, benzoyl peroxide]
Effectiveness in killing the bacteria responsible for causing acne (Propionibacterium acnes): more effective than either clindamycin or erythromycin
Solubility of BP in water [1]: virtually insoluble
Solubility of BP in absolute alcohol [2]: poor
